The values below come from ChEMBL document CHEMBL5241083, “Lysophosphatidic acid (LPA) receptor modulators: Structural features and recent development” (Eur J Med Chem, 2021).

What is called EC50 is the concentration that produces a half-maximal response. A high value points to a need for much substance. As a reminder, the IC50 is the concentration at which inhibition is half-maximal. The Ki is a dissociation constant, usually derived from enzyme kinetics or from competition with a known ligand.

Experiment [1] has as its target T1, Lysophosphatidic acid receptor 1 (Homo sapiens, UniProt Q92633). Kind of experiment: Antagonist activity at human LPA1 receptor expressed in CHO cells. It is filed as cell-based.
Experiment [2] addresses T2, Lysophosphatidic acid receptor 3 (Homo sapiens, UniProt Q9UBY5).
T2 sequence (Q9UBY5 whole entry): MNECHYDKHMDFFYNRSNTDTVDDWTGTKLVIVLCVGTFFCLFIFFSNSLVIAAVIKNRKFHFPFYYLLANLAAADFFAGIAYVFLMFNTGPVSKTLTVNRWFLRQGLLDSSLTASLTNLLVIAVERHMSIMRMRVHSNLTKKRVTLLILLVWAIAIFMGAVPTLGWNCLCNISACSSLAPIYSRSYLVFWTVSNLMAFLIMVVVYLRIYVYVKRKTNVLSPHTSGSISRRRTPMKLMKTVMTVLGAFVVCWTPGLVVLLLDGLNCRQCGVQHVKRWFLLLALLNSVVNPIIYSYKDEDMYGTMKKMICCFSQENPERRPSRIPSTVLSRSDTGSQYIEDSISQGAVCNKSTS
The experiment can be described thus: Antagonist activity at human LPA3 receptor. It is filed as cell-based, CHO.

In experiment [3] the target is T3, Lysophosphatidic acid receptor 2 (Homo sapiens, UniProt Q9HBW0). The experiment can be described thus: Antagonist activity at human LPA2 receptor assessed as inhibition of LPA-induced calcium release.
T3 sequence (Q9HBW0 whole entry): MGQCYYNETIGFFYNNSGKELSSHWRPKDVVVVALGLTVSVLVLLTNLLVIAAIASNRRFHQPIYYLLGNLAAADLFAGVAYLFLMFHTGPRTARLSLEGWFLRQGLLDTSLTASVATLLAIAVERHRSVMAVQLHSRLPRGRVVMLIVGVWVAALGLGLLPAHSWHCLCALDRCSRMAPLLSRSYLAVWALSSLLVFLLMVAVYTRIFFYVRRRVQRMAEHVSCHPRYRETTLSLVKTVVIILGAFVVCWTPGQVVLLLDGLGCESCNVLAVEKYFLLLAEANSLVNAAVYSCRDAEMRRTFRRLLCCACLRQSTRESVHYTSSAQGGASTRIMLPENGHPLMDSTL
Experiment [4] deals with T1, Lysophosphatidic acid receptor 1. Kind of experiment: Antagonist activity at human LPA1 receptor.
The target of experiment [5] is T3, Lysophosphatidic acid receptor 2. Kind of experiment: Inhibition of LPA2 receptor (unknown origin).
Experiment [6] has as its system HEK-293T. Kind of experiment: Antiproliferative activity against human HEK293T cells assessed as inhibition of cell growth. It is filed as functional, cell-based.
Experiment [7] concerns the target T4, Lysophosphatidic acid receptor 5 (Homo sapiens, UniProt Q9H1C0). Kind of experiment: Antagonist activity at human LPA5 receptor by FLIPR analysis.
Experiment [8] has as its target T3, Lysophosphatidic acid receptor 2. The experiment can be described thus: Antagonist activity at LPA2 receptor (unknown origin).
The target in experiment [9] is T4, Lysophosphatidic acid receptor 5. The experiment can be described thus: Antagonist activity at human LPA5 receptor assessed as inhibition of […] cAMP accumulation incubated for 20 mins.
For experiment [10] the target is unchanged. Kind of experiment: Antagonist activity at human LPA5 receptor expressed in CHO cells assessed as inhibition of LPA stimulated calcium release incubated for 20 mins followed by […] and measured for 90 seconds. It is filed as cell-based.
In experiment [11] the target is T1, Lysophosphatidic acid receptor 1. Kind of experiment: Antagonist activity at LPA1 receptor (unknown origin) assessed as inhibition constant.

T4 sequence (Q9H1C0 whole entry): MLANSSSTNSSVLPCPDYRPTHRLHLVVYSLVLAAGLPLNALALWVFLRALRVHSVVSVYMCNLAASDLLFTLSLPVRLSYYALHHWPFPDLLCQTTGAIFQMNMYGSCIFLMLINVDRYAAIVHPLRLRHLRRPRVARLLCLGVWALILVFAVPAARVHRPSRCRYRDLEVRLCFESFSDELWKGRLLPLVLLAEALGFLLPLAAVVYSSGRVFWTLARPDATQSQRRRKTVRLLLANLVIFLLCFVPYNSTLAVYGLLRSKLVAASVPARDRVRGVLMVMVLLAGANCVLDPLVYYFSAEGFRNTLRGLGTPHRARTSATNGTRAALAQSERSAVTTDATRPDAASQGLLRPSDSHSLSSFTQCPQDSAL
T1 sequence (Q92633 whole entry): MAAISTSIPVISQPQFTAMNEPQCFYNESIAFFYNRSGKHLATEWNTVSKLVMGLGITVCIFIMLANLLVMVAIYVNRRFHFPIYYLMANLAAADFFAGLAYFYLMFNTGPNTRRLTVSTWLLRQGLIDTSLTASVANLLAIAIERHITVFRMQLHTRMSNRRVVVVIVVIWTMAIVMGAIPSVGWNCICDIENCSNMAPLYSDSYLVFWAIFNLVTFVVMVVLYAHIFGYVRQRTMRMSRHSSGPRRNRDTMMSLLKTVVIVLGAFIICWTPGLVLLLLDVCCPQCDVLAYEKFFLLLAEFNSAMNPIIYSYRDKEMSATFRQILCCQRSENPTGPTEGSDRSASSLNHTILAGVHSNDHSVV

Consider `CC(OC(=O)Nc1c(-c2ccc(-c3ccc(C4(C(=O)O)CC4)cc3)cc2)oc2cnccc12)c1ccccc1` (stereo not given), for which the EC50 in [1] and in experiment [2] was below 50 nM each time.

`COc1cccc(-c2n[nH]c3c2C(O)(C(F)(F)F)CC(=O)N3)c1` (stereo not given): the 50% inhibitory concentration (IC50) in [3] is below 1000 nM.

For `O=C1CC(O)(C(F)(F)F)c2c(-c3cccc(Br)c3)n[nH]c2N1` (stereo not given), the half-inhibitory concentration (IC50) in [3] was below 1000 nM.

For the molecule `CC(OC(=O)Nc1c(-c2ccc(-c3ccc(C4(C(=O)O)CC4)cc3)cc2)oc2cnccc12)c1ccccc1Cl` (stereo not given), the EC50 in experiment [1] and in experiment [2] was below 50 nM throughout.

For the molecule `O=C1CC(O)(C(F)(F)F)c2c(-c3cccs3)n[nH]c2N1` (stereo not given), the IC50 in [3] was below 1000 nM.

In [4], `COc1ccc(C(=O)NC2(C(=O)O)CCCCCC2)cc1OCCc1cc(Cl)ccc1F` yielded an IC50 of 100 nM.

As for `O=C1CC(O)(C(F)(F)F)c2c(-c3cccc(Cl)c3)n[nH]c2N1` (stereo not given), in experiment [3], the IC50 was below 1000 nM.

Turning to `Cc1ccc(-c2n[nH]c3c2C(O)(C(F)(F)F)CC(=O)N3)cc1` (stereo not given), in [3], the half-inhibitory concentration (IC50) was below 1000 nM.

In experiment [5], `Cc1cccc(C2CC2C(=O)Nc2nc3ccccc3[nH]2)c1` (stereo not given) returned a half-maximal inhibitory concentration (IC50) of 10 nM.

The molecule `O=C(Nc1nc2cc(C(F)(F)F)ccc2[nH]1)C1CC1c1ccccc1` (stereo not given) registered an IC50 in experiment [5] of 10 nM.

For `CCCCCCCC/C=C/CCCCCCCC(=O)N[C@H](COP(=O)(O)O)Cc1ccc(OCc2ccccc2)cc1`, the half-inhibitory concentration (IC50) in experiment [6] is 130 nM.

With `CCC1CC1(NC(=O)c1ccc(OC)c(OCCc2cccc(C)c2)c1)C(=O)O` (stereo not given), the IC50 in experiment [4] worked out at 100 nM.

Consider `COc1cc(C(=O)N(CCCc2ccccc2)Cc2ccc(Oc3ccccc3C(=O)O)cc2)cc(OC)c1OC`, for which the midpoint of inhibition in [4], the IC50, lay at 110 nM.

As for `Cc1c(COC(C)(C)C(=O)NCc2ccc(C(=O)O)cc2)nn(-c2ccccc2Cl)c1-c1ccc(C(F)(F)F)cc1`, the half-maximal inhibitory concentration (IC50) in experiment [7] is 1300 nM.

In the case of `CSc1ccc(C(=O)NC2(C(=O)O)Cc3ccccc3C2)cc1OCCc1cccc(C)c1`, in experiment [4], the IC50 is 100 nM.

As for `O=C1CC(O)(C(F)(F)F)c2c(-c3ccncc3)n[nH]c2N1` (stereo not given), the IC50 in [3] is below 1000 nM.

For the molecule `O=C1CC(O)(C(F)(F)F)c2c(-c3cccc(C(F)(F)F)c3)n[nH]c2N1` (stereo not given), the IC50 in experiment [3] is below 1000 nM.

With `Fc1ccc(CN2CCCCC2c2cc3ccccc3[nH]2)cc1` (stereo not given), in [8], the half-maximal inhibitory concentration (IC50) is below 500 nM.

For `COc1cc2c(C(=O)N3CCCCC3)cn(-c3noc4ccc(C)cc34)c(=O)c2cc1OC`, in experiment [9], the IC50 was 38 nM.

As to `Cc1c(COC(C)(C)C(=O)NCc2ccc(C(=O)O)cc2)nn(-c2ccc(Cl)cc2Cl)c1-c1ccc(Cl)cc1`, the IC50 stood at 1300 nM in experiment [7] and 2900 nM in [10].

With `O=C1CC(O)(C(F)(F)F)c2c(-c3ccc(F)cc3)n[nH]c2N1` (stereo not given), the IC50 in experiment [3] is below 1000 nM.

`O=C(Nc1nc2ccccc2[nH]1)C1CC1c1ccccc1` (stereo not given) had a 50% inhibitory concentration (IC50) in experiment [5] below 10 nM.

As to `O=C1CC(O)(C(F)(F)F)c2c(-c3ccccc3)n[nH]c2N1` (stereo not given), the IC50 in [3] is below 1000 nM.

In turn, `O=C(Nc1nc2cc(Cl)ccc2[nH]1)C1CC1c1ccccc1` (stereo not given) came in with an IC50 in experiment [5] of 10 nM.

`Cc1cccc(CN2CCCCC2c2cc3ccccc3[nH]2)c1` (stereo not given): the half-inhibitory concentration (IC50) in experiment [8] was below 500 nM.

`COc1ccc(C(=O)NC2(C(=O)O)CCC(C)C2)cc1OCCc1cccc(C)c1` (stereo not given) came in with an IC50 in [4] of 100 nM.

As for `COc1ccc(-c2n[nH]c3c2C(O)(C(F)(F)F)CC(=O)N3)cc1` (stereo not given), in [3], the 50% inhibitory concentration (IC50) was below 1000 nM.

Turning to `Cc1noc(-c2ccc(-c3ccc(CC(=O)O)c4c3CCC4)cc2)c1NC(=O)OC(C)c1ccccc1Cl` (stereo not given), the EC50 in [1] and in experiment [2] was below 50 nM throughout.

In the case of `O=C1CC(O)(C(F)(F)F)c2c(-c3cccc(F)c3)n[nH]c2N1` (stereo not given), in [3], the IC50 is below 1000 nM.

Consider `Cc1cccc(CN2C(C)CCCC2c2cc3cc(F)ccc3[nH]2)c1` (stereo not given), for which, in [8], the 50% inhibitory concentration (IC50) was below 500 nM.

As for `CCN1CCCc2ccc(-n3cc(C(=O)N4CCCCC4)c4cc(OC)c(OC)cc4c3=O)cc21`, the IC50 in [9] (filed as antagonist) amounted to 38 nM.

Regarding `COc1ccc(C(=O)NC2(C(=O)O)CC3CCC(C3)C2)cc1OCCc1cccc(C)c1` (stereo not given), in experiment [4], the IC50 is 100 nM.

With `CC1=C(NC(=O)OC(C)c2ccccc2Cl)C(c2ccc(CSCCC(=O)O)cc2)ON1` (stereo not given), in experiment [11], the Ki was 6420 nM.

Turning to `Cc1c(COC(C)(C)C(=O)NCc2ccc(C(=O)O)cc2)nn(-c2ccc(Cl)cc2Cl)c1-c1ccc(C(F)(F)F)cc1`, the half-inhibitory concentration (IC50) in experiment [7] was 30 nM.

Molecule `O=C(Nc1nc2ccccc2[nH]1)C1CC1c1ccccc1Cl` (stereo not given) returned a concentration for half-maximal inhibition (IC50) in experiment [5] of 10 nM.

Regarding `COc1ccc(C(=O)NC2(C(=O)O)CCCCCC2)cc1OCCc1cccc(Cl)c1`, the IC50 in experiment [4] was found to be 100 nM.
